Measured values reported in article PMC10674894 (Viruses, 2023).

Columns and labels:
CHIKV DRDE-07 = assay: In vitro screening against CHIKV (CPE inhibition and MTT cell viability); assay type: cell-based, chikungunya virus; conditions: Table S1, CHIKV-infected Vero cells; for % Cell viability: 72 hpi, MTT assay; for CPE: arbitrary score of cytopathic effect at >48 hpi
Vero cells = assay: Cytotoxicity MTT assay in Vero cells (MNTD, CC50); assay type: cell-based, African green monkey; conditions: Table S1; Vero cells

Row | SMILES | % Cell viability (CHIKV DRDE-07) [%] | CPE (CHIKV DRDE-07) | MNTD (Vero cells) [µM]
1 | O=C(NNC(=O)c1cccnc1)c1ccccc1 [DCR4, N'-benzoylnicotinohydrazide] | 15 | ++++ (>60% (++++)) | 31.25
2 | O=C(NNC(=O)c1ccccc1Cl)c1cccnc1 [DCR5, N'-(2-chlorobenzoyl)nicotinohydrazide] | 13.49 | ++++ (>60% (++++)) | 31.25
3 | O=C(NNC(=O)c1cccnc1)c1ccc(Cl)cc1 [DCR6, N'-(4-chlorobenzoyl)nicotinohydrazide] | 16.98 | ++++ (>60% (++++)) | 31.25
4 | CC(=O)NNC(=O)c1cccnc1 [DCR7, N'-acetylnicotinohydrazide] | 20.31 | ++++ (>60% (++++)) | 62.5
5 | O=C(CCl)NNC(=O)c1cccnc1 [DCR8, N'-(2-chloroacetyl)nicotinohydrazide] | 13.8 | ++++ (>60% (++++)) | 31.25
6 | O=C(NNC(=O)c1ccncc1)c1ccccc1 [DCR9, N'-benzoylisonicotinohydrazide] | 9.92 | ++++ (>60% (++++)) | 31.25
7 | O=C(NNC(=O)c1ccccc1Cl)c1ccncc1 [DCR10, N'-(2-chlorobenzoyl)isonicotinohydrazide] | 21.19 | ++++ (>60% (++++)) | 31.25
8 | O=C(NNC(=O)c1ccc(Cl)cc1)c1ccncc1 [DCR11, N'-(4-chlorobenzoyl)isonicotinohydrazide] | 22.85 | ++++ (>60% (++++)) | 31.25
9 | O=C(CCl)NNC(=O)c1ccncc1 [DCR12, N'-(2-chloroacetyl)isonicotinohydrazide] | 16.34 | ++++ (>60% (++++)) | 31.25
10 | CC(=O)NNC(=O)c1ccncc1 [DCR13, N'-acetylisonicotinohydrazide] | 15.07 | ++++ (>60% (++++)) | 62.5
11 | O=C(N/N=C/c1ccccc1)c1cccnc1 [DCR14, (E)-N'-benzylidenenicotinohydrazide] | 22.93 | ++++ (>60% (++++)) | 31.25
12 | Cc1ccccc1/C=N/NC(=O)c1cccnc1 [DCR15, (E)-N'-(2-methylbenzylidene)nicotinohydrazide] | 14.76 | ++++ (>60% (++++)) | 31.25
13 | Cc1ccc(/C=N/NC(=O)c2cccnc2)cc1 [DCR16, (E)-N'-(4-methylbenzylidene)nicotinohydrazide] | 18.49 | ++++ (>60% (++++)) | 31.25
14 | CCOc1ccc(/C=N/NC(=O)c2cccnc2)cc1OC [DCR17, (E)-N'-(4-ethoxy-3-methoxybenzylidene)nicotinohydrazide] | 0.1 | ++++ (>60% (++++)) | 31.25
15 | CCOc1cc(/C=N/NC(=O)c2cccnc2)ccc1O [DCR18, (E)-N'-(3-ethoxy-4-hydroxybenzylidene)nicotinohydrazide] | 15.39 | ++++ (>60% (++++)) | 31.25
16 | O=C(N/N=C/c1cccc([N+](=O)[O-])c1)c1cccnc1 [DCR19, (E)-N'-(3-nitrobenzylidene)nicotinohydrazide] | 20.39 | ++++ (>60% (++++)) | 62.5
17 | O=C(N/N=C/c1ccccc1[N+](=O)[O-])c1cccnc1 [DCR20, (E)-N'-(2-nitrobenzylidene)nicotinohydrazide] | 22.69 | ++++ (>60% (++++)) | 31.25
18 | O=C(N/N=C/c1ccco1)c1cccnc1 [DCR21, (E)-N'-(furan-2-ylmethylene)nicotinohydrazide] | 0 | ++++ (>60% (++++)) | 62.5
19 | O=C(N/N=C/c1cccc(Br)c1)c1cccnc1 [DCR22, (E)-N'-(3-bromobenzylidene)nicotinohydrazide] | 19.28 | ++++ (>60% (++++)) | 15.6
20 | O=C(N/N=C/c1ccccc1Br)c1cccnc1 [DCR23, (E)-N'-(2-bromobenzylidene)nicotinohydrazide] | 28.01 | ++++ (>60% (++++)) | 15.6
21 | O=C(N/N=C/c1ccc(Cl)cc1)c1cccnc1 [DCR25, (E)-N'-(4-chlorobenzylidene)nicotinohydrazide] | 30.15 | ++++ (>60% (++++)) | 62.5

Row | SMILES | % Cell viability (CHIKV DRDE-07) [%] | CPE (CHIKV DRDE-07) | MNTD (Vero cells) [µM]
22 | O=C(N/N=C/c1ccc(Cl)cc1Cl)c1cccnc1 [DCR26, (E)-N'-(2,4-dichlorobenzylidene)nicotinohydrazide] | 26.11 | ++++ (>60% (++++)) | 31.25
23 | COc1cc(/C=N/NC(=O)c2cccnc2)cc(OC)c1OC [DCR27, (E)-N'-(3,4,5-trimethoxybenzylidene)nicotinohydrazide] | 21.26 | ++++ (>60% (++++)) | 31.25
24 | O=C(O)c1ccc(/C=N/NC(=O)c2cccnc2)cc1 [DCR28, (E)-4-((2-nicotinoylhydrazono)methyl)benzoic acid] | 15.63 | ++++ (>60% (++++)) | 62.5
25 | Cc1ccccc1/C=N/NC(=O)c1ccncc1 [DCR30, (E)-N'-(2-methylbenzylidene)isonicotinohydrazide] | 23.8 | ++++ (>60% (++++)) | 62.5
26 | Cc1ccc(/C=N/NC(=O)c2ccncc2)cc1 [DCR31, (E)-N'-(4-methylbenzylidene)isonicotinohydrazide] | 1.03 | ++++ (>60% (++++)) | 62.5
27 | CCOc1ccc(/C=N/NC(=O)c2ccncc2)cc1OC [DCR32, (E)-N'-(4-ethoxy-3-methoxybenzylidene)isonicotinohydrazide] | 6.03 | ++++ (>60% (++++)) | 31.25
28 | CCOc1cc(/C=N/NC(=O)c2ccncc2)ccc1O [DCR33, (E)-N'-(3-ethoxy-4-hydroxybenzylidene)isonicotinohydrazide] | 0 | ++++ (>60% (++++)) | 62.5
29 | O=C(N/N=C/c1cccc([N+](=O)[O-])c1)c1ccncc1 [DCR34, (E)-N'-(3-nitrobenzylidene)isonicotinohydrazide] | 6.42 | ++++ (>60% (++++)) | 62.5
30 | O=C(N/N=C/c1ccccc1[N+](=O)[O-])c1ccncc1 [DCR35, (E)-N'-(2-nitrobenzylidene)isonicotinohydrazide] | 9.84 | ++++ (>60% (++++)) | 62.5
31 | O=C(N/N=C/c1ccco1)c1ccncc1 [DCR36, (E)-N'-(furan-2-ylmethylene)isonicotinohydrazide] | 5 | ++++ (>60% (++++)) | 62.5
32 | O=C(N/N=C/c1cccc(Br)c1)c1ccncc1 [DCR37, (E)-N'-(3-bromobenzylidene)isonicotinohydrazide] | 14.36 | ++++ (>60% (++++)) | 31.25
33 | O=C(N/N=C/c1ccccc1Br)c1ccncc1 [DCR38, (E)-N'-(2-bromobenzylidene)isonicotinohydrazide] | 25.1 | ++++ (>60% (++++)) | 31.25
34 | O=C(N/N=C/c1ccc(Cl)cc1)c1ccncc1 [DCR40, (E)-N'-(4-chlorobenzylidene)isonicotinohydrazide] | 5.23 | ++++ (>60% (++++)) | 31.25
35 | O=C(N/N=C/c1ccc(Cl)cc1Cl)c1ccncc1 [DCR41, (E)-N'-(2,4-dichlorobenzylidene)isonicotinohydrazide] | 35.79 | ++++ (>60% (++++)) | 31.25
36 | COc1cc(/C=N/NC(=O)c2ccncc2)cc(OC)c1OC [DCR42, (E)-N'-(3,4,5-trimethoxybenzylidene)isonicotinohydrazide] | 12.22 | ++++ (>60% (++++)) | 31.25
37 | O=C(O)c1ccc(/C=N/NC(=O)c2ccncc2)cc1 [DCR43, (E)-4-((2-isonicotinoylhydrazono)methyl)benzoic acid] | 16.82 | ++++ (>60% (++++)) | 31.25
38 | C/C(=N\NC(=O)c1ccncc1)c1ccccc1O [DCR44, (E)-N'-(1-(2-hydroxyphenyl)ethylidene)isonicotinohydrazide] | 18.88 | ++++ (>60% (++++)) | 31.25
39 | C/C(=N\NC(=O)c1cccnc1)c1ccc(O)cc1 [DCR45, (E)-N'-(1-(4-hydroxyphenyl)ethylidene)nicotinohydrazide] | 15.55 | ++++ (>60% (++++)) | 31.25
40 | C/C(=N\NC(=O)c1cccnc1)c1ccccc1N [DCR46, (E)-2-(1-(2-nicotinoylhydrazono)ethyl)benzenaminium] | 27.31 | ++++ (>60% (++++)) | 31.25
41 | C/C(=N\NC(=O)c1cccnc1)c1c(O)ccc2ccccc12 [DCR47, (E)-N'-(1-(2-hydroxynaphthalen-1-yl)ethylidene)nicotinohydrazide] | 6.42 | ++++ (>60% (++++)) | 31.25
42 | C#CCOC(=O)C1=C(C)NC(=O)NC1c1ccc([N+](=O)[O-])cc1 (centres unmarked) [DCR93, prop-2-yn-1-yl 6-methyl-4-(4-nitrophenyl)-2-oxo-1,2,3,4-tetrahydropyrimidine-5-carboxylate] | 12.17 | ++++ (>60% (++++)) | 
